From patent US6455755B2, “Leukotriene B4 receptor transgenic mice” (Brigham and Women's Hospital, priority 1999, dated 2002)

Experiments:
[1] = test system: HEK293 cells with BLTR and ALXR (stable transfectants); test: Cytosensor microphysiometry of extracellular acidification rate (EAR) in HEK293 cells with BLTR and ALXR; format: cell-based, human; settings: LXA4 1 μM 20 min prior to LTB4 1 μM
Procedure: (§1) Cloning and functional expression of hBLTR. Total RNA was isolated from retinoic acid differentiated HL-60 cells using TriZol reagent (GIBCO BRL, Grand Island, N.Y.) and reverse-transcribed for 30 min at 50° C. followed by 40 cycles of polymerase chain reactions (PCR) using Vent DNA polymerase (New England BioLabs, Beverly, Mass.) (98° C. for 1 min, 60° C. for 1 min and 72° C. for 2 min) with specific primers for hBLTR (BLTR-N: 5′[…]-3′ and BLTR-C: 5′[…]-3′) (Fiore, S., Romano, M., Reardon, E. M. and Serhan, C. N. 1993. Induction of functional lipoxin A4 receptors in HL-60 cells. Blood 81: 3395-3403). HBLTR cDNA was inserted into pGL vector (Promega) at HindII-PpuMI site downstream of CD11b promoter. HEK293 cells were transfected with this pGL-CD11b-hBLTR construct using SuperFect reagent (Qiagen, Chatsworth, Calif.). Ligand binding and intracellular Ca^2+ release were carried out as in refs. (Yokomizo, T., Izumi, T., Chang, K., Takuwa, Y. and Shimizu, T. 1997. A G-protein-coupled receptor for leukotriene B4 that mediates chemotaxis. Nature 387: 620-624) and (Ng, C. F., Sun, F. F., Taylor, B. M., Wolin, M. S. and Wong, P. Y. 1991. Functional properties of guinea pig eosinophil leukotriene B4receptors. J. Immunol. 147: 3096-3103), respectively. […]

BLTR [2] = target: T1, BLTR (Homo sapiens, UniProt Q15722); test: Displacement of specific [3H]-LTB4 binding in HEK293 cells stably transfected with BLTR; set-up: expressed in transfected cells
Procedure: as §1

[3] = test system: PMN infiltration into lungs; test: Hind limb ischemia-reperfusion induced second organ injury (lung PMN infiltration by MPO); format: in vivo, mouse; settings: hBLTR transgenic mice
Source text: Hind limb ischemia-reperfusion induced second organ injury. Mice were anesthetized and ATL analog 15-epi-16-para-fluoro-phenoxy-LXA4 (15(R)-16-para-fluoro-phenoxy-17,18,19,20-tetranol-LXA4 methyl ester), prepared as in (Takano, T., Clish, C. B., Gronert, K., Petasis, N. A. and Serhan C. N. 1997. Neutrophil-mediated changes in vascular permeability are inhibited by topical application of aspirin-triggered 15-epi-lipoxin A4 and novel lipoxin B4 stable analogues. J. Clin. Invest. 101: 819-826) or vehicle was administered intravenously to the transgenic mice. Approximately five minutes later, a tourniquet was placed proximally around each hind limb and secured with a metal clamp (Goldman, G., Welboum, R., Klausner, J. M., Kobzik, L., Valeri, C. R. et al. 1992. Mast cells and leukotrienes mediate neutrophil sequestration and lung edema after remote ischemia in rodents. Surgery 112: 578-586). Vascular occlusion was verified by engorgement and discoloration of the feet. After 3 hours of ischemia, the tourniquets were removed and followed by 3 hours of reperfusion. […] The left lungs were harvested, homogenized in 1.5 ml of potassium phosphate buffer (pH 7.4) and then centrifuged at 14,000 rpm (5 min). […]

[4] = test system: PMN infiltration into ear skin; test: Ear skin inflammation model (topical application, PMN infiltration by MPO); format: in vivo, mouse; settings: for increase in PMN infiltration into skin compared to vehicle control: LTB4 1 μg topical to ear, MPO; for percent inhibition of LTB4-induced PMN infiltration: 10 μg topical 5 min before LTB4 1 μg
Procedure: Ear skin inflammation model. hBLTR transgenic and wt mice were anesthetized and 16-phenoxyl-LXA4 (15(S)-16-phenoxy-17,18,19,20-tetranol-LXA4 methyl ester, prepared by total synthesis as in ref. 7 by Prof. N. A. Petasis and colleagues, Dept. of Chemistry, Univ. of Southern California) (10 μg) in 10 μl of acetone was applied to the inner side of right ears. Acetone alone was applied to the left ear as a vehicle control. Five min later, LTB4 (5S, 12R-dihydroxy-6,8,10,14-eicosatetraenoic acid; 1 μg) in 10 μl acetone was applied to both ears. Ear skin punch biopsies were collected for leukocyte MPO activity (Takano, T., Clish, C. B., Gronert, K., Petasis, N. A. and Serhan C. N. 1997. Neutrophil-mediated changes in vascular permeability are inhibited by topical application of aspirin-triggered 15-epi-lipoxin A4 and novel lipoxin B4 stable analogues. J. Clin. Invest. 101: 819-826).

BLTR [5] = target: T1, BLTR; test: Intracellular Ca2+ mobilization in HEK293 cells transfected with pGL-CD11b-hBLTR; format: cell-based; set-up: expressed in transfected cells; host or cells: HEK293 (transient transfection with pGL-CD11b-hBLTR, SuperFect); settings: LTB4 100 nM; transiently transfected HEK293 cells

T1 sequence (Q15722 whole entry): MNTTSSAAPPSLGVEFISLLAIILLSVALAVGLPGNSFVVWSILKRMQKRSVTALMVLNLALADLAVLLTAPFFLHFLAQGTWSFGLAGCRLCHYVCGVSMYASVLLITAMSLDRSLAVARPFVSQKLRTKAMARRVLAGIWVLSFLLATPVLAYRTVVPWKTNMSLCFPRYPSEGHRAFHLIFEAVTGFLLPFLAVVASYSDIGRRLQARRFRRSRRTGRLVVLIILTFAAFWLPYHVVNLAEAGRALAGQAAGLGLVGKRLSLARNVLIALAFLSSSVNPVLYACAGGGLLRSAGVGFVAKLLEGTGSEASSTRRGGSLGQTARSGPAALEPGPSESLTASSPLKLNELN

Q: With `CCCCC[C@H](O)/C=C/C=C\C=C\C=C\[C@@H](O)[C@@H](O)CCCC(=O)O` (relative stereo) [LXA4, 5(S), 6(R), 15(S)-trihydroxy-7,9,13-trans-11-cis eicosatetraenoic acid] as the compound, how does the “effect on LTB4-evoked extracellular acidification rate” value [1] read?
A: The value was “nor did LXA4 or its analogs affect LTB4-evoked extracellular acidification rate”.

Q: What about the “competition with [3H]-LTB4 binding” value (BLTR [2]) of the same compound?
A: The value was “did not compete with [^3H]-LTB4 binding”.

Q: With `COC(=O)CCC[C@H](O)[C@H](O)C=CC=CC=CC=C[C@@H](O)COc1ccc(F)cc1` [ATL, 15(R)-16-para-fluoro-phenoxy-17,18,19,20-tetranol-LXA4 methyl ester] as the compound, how does the “PMN infiltration into lungs vs vehicle” value ([3]; 10 μg intravenous prior to ischemia-reperfusion, p=0.04, n=3) read?
A: Its value is “significantly diminished PMN infiltration into lungs”.

Q: What about the “inhibition of PMN infiltration (change)” value ([3]; intravenous prior to ischemia-reperfusion) of the same compound?
A: Its value is 40-60%.

Q: For `CCCCCC=CC[C@@H](O)C=CC=CC=C[C@@H](O)CCCC(=O)O` [LTB4, 5S, 12R-dihydroxy-6,8,10,14-eicosatetraenoic acid, reference compound], which “increase in PMN infiltration into skin compared to vehicle control” value ([4]; hBLTR transgenic mice, n=10) is on record?
A: The value was 7.4±0.9 fold.

Q: What about the “increase in PMN infiltration into skin compared to vehicle control” value ([4]; wt mice, n=7) of the same compound?
A: The value was 3.2±0.5 fold.

Q: What about the “mobilization of intracellular Ca2+” value (BLTR [5]) of the same compound?
A: Its value is “intracellular Ca^2+ was mobilized”.

Q: How did the “number of PMN whose infiltration was inhibited, hBLTR transgenic relative to wt mice” value ([4]; MPO activities converted to total number of PMN, 10 μg topical) turn out when `COC(=O)CCC[C@H](O)[C@H](O)C=CC=CC=CC=C[C@H](O)COc1ccccc1` [LXA4 stable analog, 15(S)-16-phenoxy-17,18,19,20-tetranol-LXA4 methyl ester] was run?
A: The value was 3 times.

Q: What about the “percent inhibition of LTB4-induced PMN infiltration” value ([4]; hBLTR transgenic mice) of the same compound?
A: Its value is roughly 45%.

Q: What about the “effect on PMN infiltration” value ([4]; hBLTR transgenic mice, 10 μg topical, representative data from n=3) of the same compound?
A: Its value is “clearly able to block PMN infiltration”.

Q: And the “percent inhibition of LTB4-induced PMN infiltration” value ([4]; wt mice)?
A: The value was roughly 37%.
